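Exposure lasted 48 hours, with cells grown in 96-well plates and compounds tested at five concentrations. TGI marks complete inhibition of growth.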 *1 amine or outer side, *2 acyl side, *3 side chain or, on linkers, in order; H or OH if unused. Where a SMILES comes first, the peptide text is derived from it. [ ]: non-standard residue; d: D form. The star is where a group is joined. ξ: configuration not given here. X27 = O=C([C@H]1CCC[C@H]1N[*:1])[*:2]; ξW = NC(Cc1c[nH]c2ccccc12)C(=O)O; ξF = NC(Cc1ccccc1)C(=O)O; Boc = CC(C)(C)OC(=O)*; ξK = NCCCCC(N)C(=O)O; ξT = CC(O)C(N)C(=O)O; tBu = CC(C)(C)*
Assays:
Experiment in all cases: DTP human tumour cell line panel, 48 h
786-0 renal = system: 786-0 renal
HS 578T breast = system: HS 578T breast
MDA-MB-435 = system: MDA-MB-435
NCI-H23 lung = system: NCI-H23 lung
NCI-H460 lung = system: NCI-H460 lung
NCI-H522 lung = system: NCI-H522 lung
OVCAR-4 ovarian = system: OVCAR-4 ovarian
OVCAR-8 ovarian = system: OVCAR-8 ovarian
SF-295 CNS = system: SF-295 CNS
SF-539 CNS = system: SF-539 CNS
SNB-75 CNS = system: SNB-75 CNS
UACC-257 melanoma = system: UACC-257 melanoma
HOP-92 NSCLC = system: HOP-92 NSCLC
KM12 colon = system: KM12 colon
RPMI-8226 leukemia = system: RPMI-8226 leukemia
SK-MEL-28 melanoma = system: SK-MEL-28 melanoma
SW-620 colon = system: SW-620 colon
UO-31 renal = system: UO-31 renal
BT-549 breast = system: BT-549 breast

Clc1c(Cl)c(Cl)c2c(nnn2C2CCCO2)c1Cl (centres undefined)
TGI (786-0 renal): > 100 µM
TGI (HS 578T breast): 59 µM
TGI (MDA-MB-435): > 100 µM
TGI (NCI-H23 lung): 49.3 µM
TGI (NCI-H460 lung): 41.8 µM
TGI (NCI-H522 lung): 66.6 µM
TGI (OVCAR-4 ovarian): 54.5 µM
TGI (OVCAR-8 ovarian): > 100 µM
TGI (SF-295 CNS): > 100 µM
TGI (SF-539 CNS): > 100 µM
TGI (SNB-75 CNS): 40.3 µM
TGI (UACC-257 melanoma): > 100 µM

CCOP(=O)(OCC)C(C)(C)N(C)/C(F)=N/C(F)(F)F
TGI (786-0 renal): > 100 µM
TGI (HOP-92 NSCLC): > 100 µM
TGI (HS 578T breast): > 100 µM
TGI (KM12 colon): > 100 µM
TGI (MDA-MB-435): > 100 µM
TGI (NCI-H23 lung): > 100 µM
TGI (NCI-H460 lung): > 100 µM
TGI (OVCAR-4 ovarian): > 100 µM
TGI (OVCAR-8 ovarian): > 100 µM
TGI (RPMI-8226 leukemia): > 100 µM
TGI (SF-295 CNS): > 100 µM
TGI (SF-539 CNS): > 100 µM
TGI (SK-MEL-28 melanoma): > 100 µM
TGI (SNB-75 CNS): > 100 µM
TGI (SW-620 colon): > 100 µM
TGI (UACC-257 melanoma): > 100 µM
TGI (UO-31 renal): > 100 µM

O=C(NC(Cl)(C(F)(F)F)C(F)(F)F)c1ccc(F)cc1
TGI (786-0 renal): > 100 µM
TGI (HOP-92 NSCLC): > 100 µM
TGI (HS 578T breast): > 100 µM
TGI (KM12 colon): > 100 µM
TGI (MDA-MB-435): > 100 µM
TGI (NCI-H23 lung): > 100 µM
TGI (NCI-H460 lung): > 100 µM
TGI (OVCAR-4 ovarian): > 100 µM
TGI (OVCAR-8 ovarian): > 100 µM
TGI (RPMI-8226 leukemia): > 100 µM
TGI (SF-295 CNS): > 100 µM
TGI (SF-539 CNS): > 100 µM
TGI (SK-MEL-28 melanoma): > 100 µM
TGI (SNB-75 CNS): 91.6 µM
TGI (SW-620 colon): > 100 µM
TGI (UACC-257 melanoma): > 100 µM
TGI (UO-31 renal): > 100 µM

CCOP(=O)(C=C=C1CCC2[C@@H]3CCc4cc(OC)ccc4C3CC[C@]12C)OCC (some centres undefined)
TGI (786-0 renal): 25.3 µM
TGI (HOP-92 NSCLC): 22.5 µM
TGI (HS 578T breast): 40.3 µM
TGI (KM12 colon): 26.2 µM
TGI (MDA-MB-435): 25.5 µM
TGI (NCI-H23 lung): 20.8 µM
TGI (NCI-H460 lung): 27.6 µM
TGI (NCI-H522 lung): 18.9 µM
TGI (OVCAR-4 ovarian): 21.3 µM
TGI (OVCAR-8 ovarian): 29.3 µM
TGI (SF-295 CNS): 19.7 µM
TGI (SF-539 CNS): 29 µM
TGI (SK-MEL-28 melanoma): 23.9 µM
TGI (SNB-75 CNS): 25.5 µM
TGI (SW-620 colon): 29.2 µM
TGI (UACC-257 melanoma): 19.6 µM

CCOc1ccc(N/C(=C(/C(Cl)=C(/Cl)Nc2ccccc2)[N+](=O)[O-])n2nnc3ccccc32)cc1
TGI (786-0 renal): 62.3 µM
TGI (BT-549 breast): 28.7 µM
TGI (HOP-92 NSCLC): 40.6 µM
TGI (KM12 colon): > 100 µM
TGI (MDA-MB-435): 87.5 µM
TGI (NCI-H23 lung): 32.6 µM
TGI (NCI-H460 lung): > 100 µM
TGI (NCI-H522 lung): 39.5 µM
TGI (OVCAR-4 ovarian): > 100 µM
TGI (RPMI-8226 leukemia): > 100 µM
TGI (SF-295 CNS): > 100 µM
TGI (SK-MEL-28 melanoma): 54.5 µM
TGI (SNB-75 CNS): > 100 µM
TGI (UACC-257 melanoma): > 100 µM
TGI (UO-31 renal): 54.5 µM

Clc1ccc(Nc2nnc(CCCCCCCCc3nnc(Nc4ccc(Cl)cc4)o3)o2)cc1
TGI (786-0 renal): 60.1 µM
TGI (BT-549 breast): > 100 µM
TGI (HOP-92 NSCLC): 98.7 µM
TGI (KM12 colon): 99.2 µM
TGI (MDA-MB-435): > 100 µM
TGI (NCI-H23 lung): 90.6 µM
TGI (NCI-H460 lung): > 100 µM
TGI (NCI-H522 lung): 73.1 µM
TGI (OVCAR-4 ovarian): > 100 µM
TGI (RPMI-8226 leukemia): 79.7 µM
TGI (SF-295 CNS): > 100 µM
TGI (SK-MEL-28 melanoma): > 100 µM
TGI (SNB-75 CNS): > 100 µM
TGI (SW-620 colon): > 100 µM
TGI (UACC-257 melanoma): > 100 µM
TGI (UO-31 renal): > 100 µM

COC(=O)[C@H](Cc1ccccc1)NC(=O)/C(=C/C(C)C)NC(=O)[C@H](CCSC)NC=O
TGI (786-0 renal): > 100 µM
TGI (HOP-92 NSCLC): > 100 µM
TGI (KM12 colon): > 100 µM
TGI (NCI-H23 lung): > 100 µM
TGI (NCI-H460 lung): > 100 µM
TGI (NCI-H522 lung): > 100 µM
TGI (OVCAR-4 ovarian): > 100 µM
TGI (OVCAR-8 ovarian): > 100 µM
TGI (RPMI-8226 leukemia): > 100 µM
TGI (SF-295 CNS): > 100 µM
TGI (SF-539 CNS): > 100 µM
TGI (SK-MEL-28 melanoma): > 100 µM
TGI (SNB-75 CNS): > 100 µM
TGI (SW-620 colon): > 100 µM
TGI (UACC-257 melanoma): > 100 µM
TGI (UO-31 renal): > 100 µM

CCCCCCCCOCC(O)COC(C)C (centres undefined)
TGI (786-0 renal): > 100 µM
TGI (HOP-92 NSCLC): 81.8 µM
TGI (NCI-H23 lung): 88 µM
TGI (NCI-H460 lung): > 100 µM
TGI (OVCAR-4 ovarian): > 100 µM
TGI (OVCAR-8 ovarian): > 100 µM
TGI (RPMI-8226 leukemia): 51.9 µM
TGI (SF-295 CNS): > 100 µM
TGI (SK-MEL-28 melanoma): > 100 µM
TGI (SW-620 colon): > 100 µM
TGI (UACC-257 melanoma): 72.7 µM
TGI (UO-31 renal): > 100 µM

CC(C)C1OC(N)=C(C#N)C1(C#N)C#N (centres undefined)
TGI (786-0 renal): > 100 µM
TGI (HOP-92 NSCLC): > 100 µM
TGI (HS 578T breast): > 100 µM
TGI (KM12 colon): > 100 µM
TGI (MDA-MB-435): > 100 µM
TGI (NCI-H23 lung): > 100 µM
TGI (NCI-H522 lung): > 100 µM
TGI (OVCAR-8 ovarian): > 100 µM
TGI (RPMI-8226 leukemia): 79.2 µM
TGI (SF-295 CNS): > 100 µM
TGI (SF-539 CNS): > 100 µM
TGI (SNB-75 CNS): > 100 µM
TGI (SW-620 colon): > 100 µM
TGI (UACC-257 melanoma): 96.4 µM
TGI (UO-31 renal): > 100 µM

Nc1ccccc1Nc1ccccc1C(=O)[O-].Nc1ccccc1Nc1ccccc1C(=O)[O-].[Zn+2]
TGI (786-0 renal): > 100 µM
TGI (KM12 colon): > 100 µM
TGI (NCI-H23 lung): > 100 µM
TGI (NCI-H460 lung): > 100 µM
TGI (NCI-H522 lung): 44.4 µM
TGI (OVCAR-8 ovarian): > 100 µM
TGI (RPMI-8226 leukemia): > 100 µM
TGI (SF-295 CNS): > 100 µM
TGI (SF-539 CNS): > 100 µM
TGI (SK-MEL-28 melanoma): > 100 µM
TGI (SNB-75 CNS): 49.1 µM
TGI (SW-620 colon): > 100 µM
TGI (UACC-257 melanoma): > 100 µM
TGI (UO-31 renal): > 100 µM

CC(OC(C)(C)C)C1NC(=O)C(CCCCNC(=O)OC(C)(C)C)NC(=O)C(Cc2c[nH]c3ccccc23)NC(=O)C(Cc2ccccc2)NC(=O)[C@H]2CCC[C@H]2NC(=O)C(Cc2ccccc2)NC1=O (some centres undefined) (cyclo([X27][ξF][ξW][ξK](Boc)[ξT](tBu)[ξF]))
TGI (786-0 renal): > 100 µM
TGI (HOP-92 NSCLC): > 100 µM
TGI (HS 578T breast): 28.4 µM
TGI (KM12 colon): > 100 µM
TGI (MDA-MB-435): > 100 µM
TGI (NCI-H23 lung): > 100 µM
TGI (NCI-H460 lung): > 100 µM
TGI (NCI-H522 lung): > 100 µM
TGI (OVCAR-4 ovarian): > 100 µM
TGI (OVCAR-8 ovarian): > 100 µM
TGI (RPMI-8226 leukemia): > 100 µM
TGI (SF-295 CNS): 73.7 µM
TGI (SF-539 CNS): > 100 µM
TGI (SK-MEL-28 melanoma): > 100 µM
TGI (SNB-75 CNS): > 100 µM
TGI (SW-620 colon): > 100 µM
TGI (UACC-257 melanoma): 33.5 µM
TGI (UO-31 renal): > 100 µM

CC(=O)OCC(C)C1=C(OC(C)=O)C(=O)C2(C)C/C=C(/C)CC/C=C(\C)CCC(OC(C)=O)C(C)CCC12 (centres undefined)
TGI (786-0 renal): 28.1 µM
TGI (HOP-92 NSCLC): 20.3 µM
TGI (HS 578T breast): 60 µM
TGI (KM12 colon): 36.9 µM
TGI (MDA-MB-435): 38.2 µM
TGI (NCI-H460 lung): 10.8 µM
TGI (OVCAR-4 ovarian): 82.3 µM
TGI (OVCAR-8 ovarian): 44.9 µM
TGI (RPMI-8226 leukemia): 35.3 µM
TGI (SF-295 CNS): 31.3 µM
TGI (SF-539 CNS): 38.7 µM
TGI (SK-MEL-28 melanoma): 33.8 µM
TGI (SNB-75 CNS): > 100 µM
TGI (SW-620 colon): 40.7 µM
TGI (UACC-257 melanoma): 35.8 µM
TGI (UO-31 renal): 31.2 µM

Source: PubChem BioAssay (NCI)
